Each structure is given as a SMILES string. Read-outs that look alike come from different tables or passages of the source.

The target of this assay is T1, VAV1 (Homo sapiens, UniProt P15498+Q96SW2).
T1 construct: A heterozygous VAV1 C-terminal HiBiT knock-in pool was generated at Monte Rosa Therapeutics from a clonal Jurkat cell; endogenous in cells; host or cells: Jurkat clone stably expressing LgBiT, homozygous GSPT1-G575N; heterozygous VAV1-HiBiT knock-in pool
Put plainly: VAV1 degradation activity, VAV1-HiBiT knock-in Jurkat luminescence assay (Example A, Table 1). It counts as cell-based. Conditions: VAV1-HiBiT knock-in Jurkat cells, luminescence read at 6 and 24 hours; for Dmax: Jurkat. The essentials: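 Jurkat cells carrying VAV1-HiBiT knock-in, plated in RPMI/10% FBS with Endurazine live-cell substrate and pre-incubated ~16 h at 37° C. Compound dosed from 10 μM stock; luminescence read 6 and 24 h later. Response normalised to plate negative/positive controls, EC50 from 3-parameter logistic fit (hillslope 1).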

Setting [1] is: read-out: VAV1 DC50 (nM), class.

Regarding `O=C1CCC(c2cccc(-c3ccc(CN4CCCC4=O)cc3)c2Cl)C(=O)N1` (centres unmarked) [Compound 206, 3-(2-chloro-4′-((2-oxopyrrolidin-1-yl)methyl)-[1,1′-biphenyl]-3-yl)piperidine-2,6-dione], the Dmax (read-out: VAV1 Dmax %) is 87.5% and the Dmax (read-out: VAV1 Dmax %, class) is 60 to 90%. The DC50 reads like this: (read-out: VAV1 DC50) 42.7 nM; under setting [1], at most 100 nM.

Turning to `Cn1ccc(C(=O)Nc2ccc(-c3cccc(C4CCC(=O)NC4=O)c3Cl)cc2)n1` (centres unmarked) [Compound 207, N-[4-[2-chloro-3-(2,6-dioxo-3-piperidyl)phenyl]phenyl]-1-methyl-pyrazole-3-carboxamide], the Dmax runs as follows: (read-out: VAV1 Dmax %) 88.7%; (read-out: VAV1 Dmax %, class) 60 to 90%. Besides, the DC50 was 34.7 nM (read-out: VAV1 DC50) and at most 100 nM under setting [1].

On to `O=C1CCC(c2cccc(-c3ccc(Cc4ncccn4)cc3)c2Cl)C(=O)N1` (centres unmarked) [Compound 208], for which the Dmax was 97.2% (read-out: VAV1 Dmax %) and over 90% (read-out: VAV1 Dmax %, class). Moreover, the DC50 by setting is: (read-out: VAV1 DC50) 4.54 nM; under setting [1], at most 100 nM.

Regarding `Cn1ccc(COc2ccc(-c3cccc([C@@H]4CCC(=O)NC4=O)c3Cl)cc2)n1` [Compound 209, (S)-3-(2-chloro-4′-((1-methyl-1H-pyrazol-3-yl)methoxy)-[1,1′-biphenyl]-3-yl)piperidine-2,6-dione], the Dmax reads like this: (read-out: VAV1 Dmax %) 93.3%; (read-out: VAV1 Dmax %, class) over 90%. Besides, the DC50 (read-out: VAV1 DC50) turned out to be 7.35 nM and the DC50 under setting [1] is at most 100 nM.

For `O=C1CC[C@H](c2cccc(-c3ccc(-n4ccccc4=O)cc3)c2Cl)C(=O)N1` [Compound 210, (R)-3-(2-chloro-4′-(2-oxopyridin-1(2H)-yl)-[1,1′-biphenyl]-3-yl)piperidine-2,6-dione], the Dmax is 96.9% (read-out: VAV1 Dmax %) and over 90% (read-out: VAV1 Dmax %, class). Besides, the DC50 is 40.9 nM (read-out: VAV1 DC50) and at most 100 nM under setting [1].

`O=C1CC[C@@H](c2cccc(-c3ccc(-n4ccccc4=O)cc3)c2Cl)C(=O)N1` [Compound 211, (S)-3-(2-chloro-4′-(2-oxopyridin-1(2H)-yl)-[1,1′-biphenyl]-3-yl)piperidine-2,6-dione]: the Dmax by setting is: (read-out: VAV1 Dmax %) 97.9%; (read-out: VAV1 Dmax %, class) over 90%. The DC50 reads like this: (read-out: VAV1 DC50) 3.07 nM; under setting [1], at most 100 nM.

Turning to `O=C1CCC(c2cccc(-c3ccc(N4CCOC4=O)cc3)c2Cl)C(=O)N1` (centres unmarked) [Compound 212, 3-(2-chloro-4′-(2-oxooxazolidin-3-yl)-[1,1′-biphenyl]-3-yl)piperidine-2,6-dione], the Dmax (read-out: VAV1 Dmax %) turned out to be 47.3% and the Dmax (read-out: VAV1 Dmax %, class) is under 60%. For the same compound, the DC50 by setting is: (read-out: VAV1 DC50) 7990 nM; under setting [1], over 1000 nM.

For the compound `Cn1ccc(COc2ccc(-c3cccc([C@H]4CCC(=O)NC4=O)c3Cl)cc2)n1` [Compound 213, (R)-3-(2-chloro-4′-((1-methyl-1H-pyrazol-3-yl)methoxy)-[1,1′-biphenyl]-3-yl)piperidine-2,6-dione], the Dmax was 92% (read-out: VAV1 Dmax %) and over 90% (read-out: VAV1 Dmax %, class). Further, the DC50 was 101 nM (read-out: VAV1 DC50) and 100 to 1000 nM under setting [1].

Take `Cc1cccc(=O)n1-c1ccc(-c2cccc(C3CCC(=O)NC3=O)c2Cl)cc1` (centres unmarked) [Compound 214, 3-(2-chloro-4′-(6-methyl-2-oxopyridin-1(2H)-yl)-[1,1′-biphenyl]-3-yl)piperidine-2,6-dione]: the Dmax runs as follows: (read-out: VAV1 Dmax %) 97.5%; (read-out: VAV1 Dmax %, class) over 90%. Further, the DC50 (read-out: VAV1 DC50) turned out to be 3.61 nM and the DC50 under setting [1] was at most 100 nM.

With `O=C1CCC(c2cccc(-c3ccc(Nc4ccccn4)cc3)c2Cl)C(=O)N1` (centres unmarked) [Compound 215, 3-(2-chloro-4′-(pyridin-2-ylamino)-[1,1′-biphenyl]-3-yl)piperidine-2,6-dione], the Dmax (read-out: VAV1 Dmax %) amounted to 96.8% and the Dmax (read-out: VAV1 Dmax %, class) was over 90%. Moreover, the DC50 runs as follows: (read-out: VAV1 DC50) 14.1 nM; under setting [1], at most 100 nM.

As for `C[C@H]1COC(=O)N1c1ccc(-c2cccc(C3CCC(=O)NC3=O)c2Cl)cc1` (stereo partly drawn) [Compound 216, 3-(2-chloro-4′-((S)-4-methyl-2-oxooxazolidin-3-yl)-[1,1′-biphenyl]-3-yl)piperidine-2,6-dione], the Dmax runs as follows: (read-out: VAV1 Dmax %) 86.6%; (read-out: VAV1 Dmax %, class) 60 to 90%. Also, the DC50 was 49 nM (read-out: VAV1 DC50) and at most 100 nM under setting [1].

As to `C[C@@H]1COC(=O)N1c1ccc(-c2cccc(C3CCC(=O)NC3=O)c2Cl)cc1` (stereo partly drawn) [Compound 217, 3-(2-chloro-4′-((R)-4-methyl-2-oxooxazolidin-3-yl)-[1,1′-biphenyl]-3-yl)piperidine-2,6-dione], the Dmax was 84.6% (read-out: VAV1 Dmax %) and 60 to 90% (read-out: VAV1 Dmax %, class). Besides, the DC50 was 43 nM (read-out: VAV1 DC50) and at most 100 nM under setting [1].

As to `O=C1CCC(c2cccc(-c3ccc(-n4cccc(F)c4=O)cc3)c2Cl)C(=O)N1` (centres unmarked) [Compound 218], the Dmax by setting is: (read-out: VAV1 Dmax %) 96%; (read-out: VAV1 Dmax %, class) over 90%. Besides, the DC50 is 9.71 nM (read-out: VAV1 DC50) and at most 100 nM under setting [1].

With `O=C1CCC(c2cccc(-c3ccc(CN4CCOC4=O)cc3)c2Cl)C(=O)N1` (centres unmarked) [Compound 219], the Dmax is, setting by setting: (read-out: VAV1 Dmax %) 81.2%; (read-out: VAV1 Dmax %, class) 60 to 90%. For the same compound, the DC50 was 105 nM (read-out: VAV1 DC50) and 100 to 1000 nM under setting [1].

For `O=C1CCC(c2cccc(-c3ccc(N4CCCCS4(=O)=O)cc3)c2Cl)C(=O)N1` (centres unmarked) [Compound 220], the Dmax runs as follows: (read-out: VAV1 Dmax %) 77.2%; (read-out: VAV1 Dmax %, class) 60 to 90%. For the same compound, the DC50 (read-out: VAV1 DC50) worked out at 104 nM and the DC50 under setting [1] was in the range of 100 to 1000 nM.

`O=C1CCC(c2cccc(-c3ccc(C(=O)N4CCC(F)(F)C4)cc3)c2Cl)C(=O)N1` (centres unmarked) [Compound 221, 3-(2-chloro-4′-(3,3-difluoropyrrolidine-1-carbonyl)-[1,1′-biphenyl]-3-yl)piperidine-2,6-dione]: the Dmax by setting is: (read-out: VAV1 Dmax %) 77.4%; (read-out: VAV1 Dmax %, class) 60 to 90%. The DC50 (read-out: VAV1 DC50) is 211 nM and the DC50 under setting [1] was in the range of 100 to 1000 nM.

On to `O=C1CCC(c2cccc(-c3ccc(C(=O)n4cccc4)cc3)c2Cl)C(=O)N1` (centres unmarked) [Compound 222, 3-(2-chloro-4′-(1H-pyrrole-1-carbonyl)-[1,1′-biphenyl]-3-yl)piperidine-2,6-dione], for which the Dmax (read-out: VAV1 Dmax %) was determined as 91% and the Dmax (read-out: VAV1 Dmax %, class) was over 90%. Also, the DC50 (read-out: VAV1 DC50) stood at 127 nM and the DC50 under setting [1] was 100 to 1000 nM.

Turning to `O=C1CCC(c2cccc(-c3ccc(C(=O)N4CCCCC4)cc3)c2Cl)C(=O)N1` (centres unmarked) [Compound 223, 3-(2-chloro-4′-(piperidine-1-carbonyl)-[1,1′-biphenyl]-3-yl)piperidine-2,6-dione], the Dmax is 96.6% (read-out: VAV1 Dmax %) and over 90% (read-out: VAV1 Dmax %, class). In addition, the DC50 (read-out: VAV1 DC50) was determined as 10.7 nM and the DC50 under setting [1] is at most 100 nM.

Turning to `O=C1CCC(c2cccc(-c3ccc(C(=O)Nc4ccno4)cc3)c2Cl)C(=O)N1` (centres unmarked) [Compound 224, 2′-chloro-3′-(2,6-dioxopiperidin-3-yl)-N-(isoxazol-5-yl)-[1,1′-biphenyl]-4-carboxamide], the maximal degradation (Dmax) by setting is: (read-out: VAV1 Dmax %) 51.5%; (read-out: VAV1 Dmax %, class) under 60%. In addition, the DC50 (read-out: VAV1 DC50) worked out at 7800 nM and the DC50 under setting [1] was over 1000 nM.

As to `Cn1cccc(-c2ccc(-c3cccc(C4CCC(=O)NC4=O)c3Cl)cc2)c1=O` (centres unmarked) [Compound 225, 3-(2-chloro-4′-(1-methyl-2-oxo-1,2-dihydropyridin-3-yl)-[1,1′-biphenyl]-3-yl)piperidine-2,6-dione], the Dmax reads like this: (read-out: VAV1 Dmax %) 93.7%; (read-out: VAV1 Dmax %, class) over 90%. For the same compound, the DC50 (read-out: VAV1 DC50) is 14.4 nM and the DC50 under setting [1] was at most 100 nM.

For the compound `O=C1CCC(c2cccc(-c3ccc(-n4cccc(C(F)(F)F)c4=O)cc3)c2Cl)C(=O)N1` (centres unmarked) [Compound 226, 3-(2-chloro-4′-(2-oxo-3-(trifluoromethyl)pyridin-1(2H)-yl)-[1,1′-biphenyl]-3-yl)piperidine-2,6-dione], the Dmax was 96.8% (read-out: VAV1 Dmax %) and over 90% (read-out: VAV1 Dmax %, class). The DC50 by setting is: (read-out: VAV1 DC50) 9.8 nM; under setting [1], at most 100 nM.

Turning to `O=C1CCC(c2cccc(-c3ccc(NC(=O)C4CCOC4)cc3)c2Cl)C(=O)N1` (centres unmarked) [Compound 227, N-[4-[2-chloro-3-(2,6-dioxo-3-piperidyl)phenyl]phenyl]tetrahydrofuran-3-carboxamide], the Dmax reads like this: (read-out: VAV1 Dmax %) 77.4%; (read-out: VAV1 Dmax %, class) 60 to 90%. Also, the DC50 by setting is: (read-out: VAV1 DC50) 81.8 nM; under setting [1], at most 100 nM.

As for `O=C1CCC(c2cccc(-c3ccc(NC(=O)c4ccno4)cc3)c2Cl)C(=O)N1` (centres unmarked) [Compound 228, N-(2′-chloro-3′-(2,6-dioxopiperidin-3-yl)-[1,1′-biphenyl]-4-yl)isoxazole-5-carboxamide], the Dmax is 73.5% (read-out: VAV1 Dmax %) and 60 to 90% (read-out: VAV1 Dmax %, class). Also, the DC50 reads like this: (read-out: VAV1 DC50) 190 nM; under setting [1], 100 to 1000 nM.

Consider `O=C1CCC(c2cccc(-c3ccc(NC(=O)c4ccon4)cc3)c2Cl)C(=O)N1` (centres unmarked) [Compound 229, N-(2′-chloro-3′-(2,6-dioxopiperidin-3-yl)-[1,1′-biphenyl]-4-yl)isoxazole-3-carboxamide], for which the Dmax runs as follows: (read-out: VAV1 Dmax %) 82.7%; (read-out: VAV1 Dmax %, class) 60 to 90%. Also, the DC50 (read-out: VAV1 DC50) was determined as 79.3 nM and the DC50 under setting [1] was at most 100 nM.

`O=C1CCC(c2cccc(-c3ccc(C(=O)Nc4ccon4)cc3)c2Cl)C(=O)N1` (centres unmarked) [Compound 230, 2′-chloro-3′-(2,6-dioxopiperidin-3-yl)-N-(isoxazol-3-yl)-[1,1′-biphenyl]-4-carboxamide]: the Dmax is 58.5% (read-out: VAV1 Dmax %) and under 60% (read-out: VAV1 Dmax %, class). In addition, the DC50 is, setting by setting: (read-out: VAV1 DC50) 2090 nM; under setting [1], over 1000 nM.

As to `CC(C)(c1ccc(-c2cccc(C3CCC(=O)NC3=O)c2Cl)cc1)n1ccccc1=O` (centres unmarked) [Compound 231, 3-(2-chloro-4′-(2-(2-oxopyridin-1(2H)-yl)propan-2-yl)-[1,1′-biphenyl]-3-yl)piperidine-2,6-dione], the Dmax is 90.1% (read-out: VAV1 Dmax %) and over 90% (read-out: VAV1 Dmax %, class). For the same compound, the DC50 (read-out: VAV1 DC50) worked out at 18.4 nM and the DC50 under setting [1] was at most 100 nM.
